{"source": "patent US20240287351A1", "about": "“ENGINEERED MULTIFUNCTIONAL PARTICLES AND THIN DURABLE COATINGS COMPRISING CROSSLINKED SILANE POLYMERS CONTAINING UREA” (Bar-Ilan University, priority 2020, published 2024)", "test_system": "microorganisms", "test": "Antimicrobial activity after organic materials and repetitive microbial loading cycles", "conditions": "after exposure to organic materials and repetitive microbial loading cycles", "data": [{"smiles": "[Na+].[O-]Cl", "note": "[bleach, sodium hypochlorite]", "values": [{"measurement": "retention of antimicrobial activity", "result": "losing its biocidal activity rapidly"}]}]}
